pIC50: −log10 of the molar value. “Also recorded” adds a separate entry of the source. Where a name gives a salt, the structure may show the parent alone.
Experiments:
Cdc42 [1] = target: T1, Cdc42 (Homo sapiens, UniProt P60953); experiment: Flow cytometric GTPase effector binding assay in tumor lysates (Cdc42); type: in vivo; settings: oral 1 mg/kg twice daily, 2 weeks; vs placebo
T1 construct: Frozen tumor samples were lysed without thawing; from tissue; host or cells: peritoneal SKOV3ip-GFP xenograft tumours from treated mice
Experimental: (§1) GTPase effector binding assays were carried out according to the protocols described previously. Frozen tumor samples were lysed without thawing with the addition of RIPA lysis buffer with the following modifications (no β-glycerphosphate,1 mM NaF and protease, 1% (v/v) NP-40 (nonyl phenoxypolyethoxylethanol) inhibitors consisting 10 μg/ml each of chymostatin, leupeptin, pepstatin and antipain). Protein concentrations were determined using GLISA quick protein concentration kit and lysates were adjusted to uniform protein concentrations of 0.5 mg/ml. Insoluble debris was removed by centrifugation at 14,000 RPM in a cold microfuge and the supernatants were incubated with GTPase effector coated beads (PAK1-PBD for Cdc42 and Rac1) for 1 h at 4 °C with rotation. Primary antibodies directed against Cdc42 or Rac1 and secondary antibody Alexa 488 were incubated with the beads for 1 h. Fluorescence intensity MCF (mean channel fluorescence) was used to measure the amount of active intracellular GTPase. MCF was measured by flow cytometry (Accuri C6, BD Biosciences). GTPase activity was calculated as (MCFsample group – MCFunstimulated negative control) / MCFstimulated positive control.

SKOV3ip-GFP cells [2] = experiment: Measurement of omental weight; type: in vivo, mice; settings: two-week tumor study, 1 mg/kg twice daily; no significant differences between groups
Source text: page 1: SUPPLEMENTAL METHODS Cell Culture and Reagents SKOV3ip cells were modified to express GFP-Rac1 by transfection with pcDNA3-EGFP-Rac1- wt (Catalog # 12980, Addgene) as described for SKOV3ip-GFP cells under Methods. Rac1 overexpression quantification and verification was completed by western blot and qPCR. SKOV3ip-GFP and SKOV3ip-GFP-Rac1 cell populations were further enriched by flow sorting for GFP positive cells. SKOV3ip-GFP-Rac1 cell lines were maintained under the same selection as described for SKOV3ip-GFP cells (Methods). In vivo Drug Dosing Racemic (R-/S-) ketorolac tromethamine salt was purchased from Sigma (St. Louis MO, cat# K1136), S-ketorolac was purchased from Toronto Research Chemicals (Toronto Canada, cat# K235602) and dissolved in water or 100% ethanol, respectively . Mice received twice daily […] mg/kg of body weight. Measurement of Omental Weight Omental tissue was harvested and stored on ice in PBS for no more than 1 hour before analysis. Omenta were blotted dry on lab tissue and weight was measured using an analytical balance (Denver Instruments Company, A -160). There was a non-significant decreasing trend in omental weight for treated mice when compared to placebo mice ( Additional File 3: Table S1). […] Ketorolac was detected using a UV spectrometer set at UV310. […]

SKOV3ip-GFP cells [3] = experiment: Two-week intraperitoneal tumor growth model (tumor burden); type: in vivo, mice; settings: 1 mg/kg twice daily oral, 14 days, vs placebo
Source text: For two-week tumor studies, 1 × 10^6 non-treated SKOV3ip-GFP cells were i.p. injected. All mice started R-ketorolac treatment one day prior to cell injection and continued treatment until conclusion of the study 14 days later. Mice were imaged using a Light Tools imaging system (Synopsys Optical Solutions, Westminster CO) with long pass GFP filters. Three images per mouse were captured to ensure all tumors were counted. Green fluorescent tumors were identified and counted in the peritoneal cavity as single tumors if there was a distinct border of non-fluorescent tissue. Tumor burden of the omentum occurred either as one large tumor or a bundle of tumors and was not included in the final analysis of tumor number. Total tumor counts from the peritoneal cavity were normalized to placebo treated animals within individual experiments. Blood was collected via cardiac puncture and ketorolac enantiomer concentrations were measured by HPLC analysis as described in Supplemental Methods (Additional File 1: Supplemental Methods). […]

Rac1 = target: T2, Rac1 (Homo sapiens, UniProt P63000); experiment: Flow cytometric GTPase effector binding assay in tumor lysates (Rac1); type: in vivo; settings: oral 1 mg/kg twice daily, 2 weeks; vs placebo
T2 construct: Frozen tumor samples were lysed without thawing; from tissue; host or cells: peritoneal SKOV3ip-GFP xenograft tumours from treated mice
Experimental: as §1

[4] = humans, multiple dosing regimens over 5 days; cited from earlier work
[5] = set-up: method as in PMID 8809637; settings: single dose oral administration of R-ketorolac; cited from earlier work
Cdc42 [6] = system: Cdc42; set-up: method as in earlier work; settings: cell-based assays, ovarian tumor cells; ref 23 (R-ketorolac), 27 (S-ketorolac); cited from earlier work

T1 sequence (P60953 whole entry): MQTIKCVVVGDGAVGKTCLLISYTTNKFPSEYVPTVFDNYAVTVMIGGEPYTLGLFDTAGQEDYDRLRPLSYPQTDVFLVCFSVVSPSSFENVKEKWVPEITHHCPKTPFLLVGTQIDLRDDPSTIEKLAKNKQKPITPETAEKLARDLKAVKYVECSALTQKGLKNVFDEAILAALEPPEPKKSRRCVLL

SMILES | Cdc42 GTPase activity in tumor lysates (Cdc42 [1]) | Omental weight, Mean ± SD (SKOV3ip-GFP cells [2]) | Tumor burden (tumor implants within the peritoneal cavity) (SKOV3ip-GFP cells [3]; listed as Racemic drug) | Rac1 GTPase activity in tumor lysates (Rac1) | Accumulation of enantiomers with multiple dosing [4] | Tumor burden (tumor implants within the peritoneal cavity) (SKOV3ip-GFP cells [3]) | Maximal peak serum concentration [5] | pIC50 (Cdc42 [6])
O=C(c1ccccc1)c1ccc2n1CCC2C(=O)O (centres unmarked) [R−/S-ketorolac, ketorolac tromethamine salt] | Inhibition of the target GTPases was evident | 0.058 ± 0.026 g | significantly decreased tumor burden | Inhibition of the target GTPases was evident | did not result in accumulation of either enantiomer |  |  | 
O=C(c1ccccc1)c1ccc2n1CC[C@H]2C(=O)O [R-ketorolac] | significantly decreased | 0.059 ± 0.018 g |  | significantly decreased |  | significantly fewer tumor implants; also recorded: significantly decreased tumor burden | 2.48 µg/mL | 5.97
